Source: patent US20210330698A1, “METHODS AND COMPOSITIONS FOR INHIBITING ENVELOPED VIRUSES USING LOW MOLECULAR WEIGHT HYDROPHOBICALLY MODIFIED POLYMERS” (Johnson & Johnson Consumer Inc., priority 2020, published 2021)

Legend:
Type in all cases: cell-based
HIV-1IIIB = assay: Time of compound addition in HeLa-CD4-LTR-β-Gal cells; conditions: time of compound addition relative to virus addition
Experimental: HeLa-CD4-LTR-β-Gal cells are seeded at a density of 1×10^4 cells/well in a volume of 100 μL 24 hours prior to assay initiation and incubated at 37° C./5% CO2. Following the incubation compound is serially diluted at the specified concentrations and were added to the cells in triplicate at timepoints of −30 minutes, 0, 1, 2, 4, 8 and 24 hours pre- or post-virus addition in a volume of 100 μL. HIV-1IIIB is added to the cells at a pre-determined titer. The cultures are incubated at 37° C./5% CO2 for 48 hours at which time efficacy is evaluated using a chemiluminescent substrate (Gal-Screen™, ThermoFisher Scientific, Waltham, Mass.) and toxicity (three timepoints of 0, 4 and 24 hours) evaluated using the tetrazolium dye XTT.

Ca Ski (Cervical) cells = assay: Toxicity to Ca Ski cells (XTT); conditions: exposure 24 h
Experimental: (§1) TC50 values for the test materials are derived by measuring the reduction of the tetrazolium dye XTT (2,3-bis(2-methoxy-4-nitro-5-sulfophenyl)-5-[(phenylamino)carbonyl]-2H-tetrazolium hydroxide). XTT in metabolically active cells is metabolized by the mitochondrial enzyme Nicotinamide adenine dinucleotide phosphate oxidase (“NADPH”) to a soluble formazan product. XTT solution is prepared daily as a stock of 1 mg/ml in RPMI-1640 without additives. Phenazine methosulfate (PMS) solution is prepared at 0.15 mg/ml in DPBS and stored in the dark at −20° C. XTT/PMS stock is prepared immediately before use by adding 40 μL of PMS per ml of XTT solution. […] of XTT/PMS is added to each well of the plate and the plate incubated for 4 hours at 37° C. The 4 hour incubation has been empirically determined to be within the linear response range for XTT dye reduction with the indicated numbers of cells for each assay. The plates are sealed and inverted several times to mix the soluble formazan product and the plate is read at 450 nm (650 nm reference wavelength) with a Molecular Devices SpectraMax Plus 384 96 well plate format spectrophotometer.
(§2) Twenty-four hours prior to compound exposure, 100 μL of cells are plated at 5×10^4 cells per well in a flat-bottomed plate and. […] The plates are incubated at 5% CO2/37° C. for an additional 24 hours and then evaluated using XTT as described above.

ME180 (Cervical) cells = assay: Toxicity to ME180 cells (XTT); conditions: exposure 24 h
Experimental: as §1, §2

[1] = tested on: Vaginal Ectocervical Tissues; assay: Toxicity to vaginal ectocervical tissue (MTT); conditions: exposure 24 h
Experimental: On the day of the assay, the MatTek assay media is warmed and 900 μL added to each well of a 6-well plate. One hour prior to dosing, the epivaginal tissues are removed from the refrigerator and placed in the 6-well plate and the plate then incubated for 1 hour at 37° C./5% CO2. Following the incubation the media is removed from the 6 well plate and 900 μL of fresh media added. One-hundred microliters (100 μL) of each concentration is added in duplicate to the epivaginal tissue. The plate is then incubated for an additional 24 hours at 37° C./5% CO2. One hour prior to the end of the incubation, 1 mg/mL (3-(4,5-Dimethylthiazol-2-yl)-2,5-diphenyltetrazolium bromide (hereinafter, “MTT” available from Invitrogen of Carlsbad, Calif.) in DMEM is prepared. Fifteen minutes prior to the end of the incubation 300 μL of MTT is added to each well of a 24-well plate. Following the incubation, residual liquid is removed from the tissue and then gently rinsed two times with PBS. Each epivaginal tissue insert is then transferred to an individual well of the 24-well plate containing the MTT solution. The plate is then incubated for 3 hours at 37° C./5% CO2. […] The optical density of each sample is determined at 570 nm with a background of 650 nm. The % viability is determined to be 100×[OD(sample)/OD(negative control)]. […]

Compound: O=C1Nc2ccc(Cl)cc2[C@@](C#CC2CC2)(C(F)(F)F)O1 [Efavirenz]
- Time in which Antiviral Activity is Lost (HIV-1IIIB): 4 to 8 h

Compound: Nonoxynol-9 [Embodiment N-9]
- toxic concentration (Ca Ski (Cervical) cells): 36.31 µg/mL
- toxic concentration (ME180 (Cervical) cells): 41.83 µg/mL
- toxic concentration [1]: 100 to 1000 µg/mL
